In brackets after ≈: the same amount, converted by molar mass. Bridge positions count the residues as written; N and C are the ends. Ends that are not written are not given here. Peptide text beside a SMILES is read from it.
How the values were obtained:
Type in all cases: cell-based
[1] = system: Streptococcus uberis BL246
Source text: (§1) All bacterial strains including S. aureus strains (M3842, M905-1, and M3850) ([22]), S. uberis strains (M100/11, BL246, and ALP8092) ([23]) and E. coli (9217/10) were isolated from bovine mastitis milk ([24]). All strains were maintained on Trypticase soy agar plates with 5% sheep blood (Becton Dickinson AG, Allschwil, Switzerland) and always freshly plated the day before the experiment. Bacterial colonies were suspended in 0.85% NaCl solution (Axon Lab AG, Baden, Switzerland) to reach an OD value of 0.5 (DensiCHECK PLUS, Biomérieux, Genève, Switzerland), corresponding to approximately 1–1.5 × 10^8 cell/ml. The minimum inhibitory concentration (MIC) of cathelicidins was determined by the broth microdilution method as previously described ([25]). Bacteria were further diluted to approximately 1 × 10^5 cells/ml in cation-adjusted Mueller-Hinton (MH) broth (Thermo Fisher Scientific). Several twofold peptide dilutions (40–0.3 µM) were prepared in a volume of 50 µl MH II broth (Becton Dickinson AG) in a round-bottom 96-well plate. Finally, 50 µl of 10^5 cells/ml were added to the peptide dilutions to reach a final concentration of 5 × 10^4 cells/ml.

[2] = system: Streptococcus uberis ALP8092
Source text: as §1

[3] = system: Staphylococcus aureus M905-1
Source text: as §1

[4] = system: Streptococcus uberis M100/11
Source text: as §1

[5] = system: Staphylococcus aureus M3842
Source text: as §1

Escherichia coli 9217/10 = system: Escherichia coli 9217/10
Source text: as §1

[6] = system: Staphylococcus aureus M3850
Source text: as §1

bovine neutrophils = test: ROS in neutrophils (CM-H2DCFDA flow cytometry); conditions: 100 ng/ml PMA for 10 min, then 1 h culture; three animals in duplicates
Experimental: Bovine neutrophil granulocytes were isolated as previously described with a few adaptations ([20], [21]). Bovine blood sampling was performed in compliance with the Swiss animal protection law and approved by the animal welfare committee of the Canton of Bern, Switzerland, license number BE102/15. Briefly, 200 ml of blood was drawn from the jugular vein of cows at the Clinic for Ruminants (Vetsuisse Faculty, University of Bern, Switzerland) and was directly mixed with citrate-based anti-coagulant Alsever’s solution (1.55 mM of C6H12O6, 408 mM of Na3C6H5O7⋅2H2O, 1.078 mM of NaCl, and 43 mM of C6H8O7, pH 6.2). […] Neutrophils were recovered in the pellet, washed once with PBS/EDTA, counted in Trypan blue solution, and resuspended at 5 × 10^7 cells/ml in RPMI 1640 medium (Biochrom GmbH, Berlin, Germany). […] Aliquots of 5 × 10^6 neutrophils per tube were used to quantify ROS. […]
Figure 6 Cathelicidins can be detected in the supernatants of phorbol myristate acetate (PMA)-activated neutrophils. […] (A) Forward and side scatter characteristics of neutrophils stimulated with PMA or left unstimulated were evaluated by flow cytometry (left). […] (B) Histogram overlay of CM-H2DCFDA fluorescence as an indicator of ROS formation. […]

[7] = system: Mx1 in primary bovine turbinate epithelial cells (BT cells); test: Mx1 induction in BT cells (western blot), nucleic acid sensing; conditions: poly(I:C) alone, titration, 20 h, western blot (Figure S3)
Experimental: Primary bovine turbinate epithelial cells (BT cells) were obtained as previously described ([26]) and the cultures maintained in DMEM supplemented with 10% FBS, non-essential amino acids (NEAA), neomycin/bacitracin, penicillin/streptomycin (stock solutions purchased from Biochrom), and GlutaMAX (Thermo Fisher Scientific). BT cells were plated in 24-well plates at 50,000 cells/well and incubated for 18 h at 37°C in 5% CO2. For induction of Mx, cathelicidins were mixed with 100 ng/ml of poly(I:C) in a final volume of 1 ml, incubated for 10 min at room temperature, and then added to the cells. Alternatively, different dilutions of neutrophil-derived supernatants were mixed with poly(I:C) at 100 ng/ml in complete medium (DMEM with 10% FBS, NEAA, neomycin/bacitracin, penicillin/streptomycin, and GlutaMAX). Positive controls for Mx1 induction included cell treatment with 100 ng/ml of bovine rIFN-α and 1 µg/ml of poly(I:C). Cultures were further incubated at 37°C for 20 h. […]
Figure 5 Bovine myeloid antimicrobial peptide (BMAP)-27, sBAMP-27, BMAP-28, BMAP-34, and Bac1 promote nucleic acid sensing in primary epithelial cells. […] After 20 h incubation, Mx1 and β-actin were detected by western blot. […] After 20 h of culture, Mx1 and β-actin were detected by western blot. […]

## CC[C@H](C)[C@@H]1NC(=O)[C@H](CCCNC(=N)N)NC(=O)[C@@H](NC(=O)[C@H](CC(C)C)NC(=O)[C@@H](N)CCCNC(=N)N)CSSC[C@@H](C(=O)N[C@@H](CCCNC(=N)N)C(=O)O)NC(=O)[C@H](C(C)C)NC(=O)[C@H](CCCNC(=N)N)NC(=O)[C@H]([C@@H](C)CC)NC(=O)[C@H](C(C)C)NC(=O)[C@H](C(C)C)NC1=O [Bac1] (H-RLCRIVVIRVCR-OH; disulfide 3-11)
[1]
  MIC: 20.00 ± 0 µM (≈ 29.7 µg/mL)
[2]
  MIC: ≥20 ± 10 µM
[3]
  MIC: >20 µM
[4]
  MIC: 13.33 ± 5 µM (≈ 19.8 µg/mL)
[5]
  MIC: >20 µM
Escherichia coli 9217/10
  MIC: >20 µM
[6]
  MIC: ≥20 ± 6.67 µM

## CCCCCCCCCCCCCC(=O)O[C@@H]1[C@@H](C)[C@@]2(O)[C@@H](C=C(CO)C[C@]3(O)C(=O)C(C)=C[C@@H]23)[C@@H]2C(C)(C)[C@]12OC(C)=O [PMA, phorbol myristate acetate]
Bovine neutrophils
  fluorescence intensity of CM-H2DCFDA (ROS indicator) compared to unstimulated neutrophils: significantly higher

## AGLFRRLRDSIRRGQQKILEKARRIGERIKDIFRG [BMAP-34]
[1]
  MIC: 4.17 ± 1.25 µM
[2]
  MIC: 5.00 ± 0 µM
[3]
  MIC: 14.44 ± 5.27 µM
[4]
  MIC: 5.00 ± 0 µM
[5]
  MIC: 12.22 ± 4.41 µM
Escherichia coli 9217/10
  MIC: 5.00 ± 0 µM
[6]
  MIC: 10.00 ± 0 µM

## GGLRSLGRKILRAWKKYGPIIVPIIRIG [BMAP-28]
[1]
  MIC: 10.00 ± 0 µM
[2]
  MIC: 10.00 ± 0 µM
[3]
  MIC: 14.44 ± 5.27 µM
[4]
  MIC: 10.00 ± 0 µM
[5]
  MIC: 13.33 ± 5 µM
Escherichia coli 9217/10
  MIC: 10.00 ± 0 µM
[6]
  MIC: 17.78 ± 4.41 µM

## GLPKLHFRRKKGKLVSFPLKFKFKIRL [sBMAP-27]
[1]
  MIC: 5.56 ± 1.67 µM
[2]
  MIC: 8.33 ± 2.5 µM
[3]
  MIC: 20.00 ± 0 µM
[4]
  MIC: 5.00 ± 0 µM
[5]
  MIC: ≥20 ± 10 µM
Escherichia coli 9217/10
  MIC: 10.00 ± 0 µM
[6]
  MIC: 17.78 ± 4.41 µM

## GRFKRFRKKFKKLFKKLSPVIPLLHLG [BMAP-27]
[1]
  MIC: 4.17 ± 1.25 µM
[2]
  MIC: 4.72 ± 0.83 µM
[3]
  MIC: 8.33 ± 2.5 µM
[4]
  MIC: 2.78 ± 0.83 µM
[5]
  MIC: 5.00 ± 0 µM
Escherichia coli 9217/10
  MIC: 2.50 ± 0 µM
[6]
  MIC: 7.22 ± 2.64 µM

## Polyinosinic–polycytidylic acid [poly(I:C)]
[7]
  concentration of poly(I:C) below which induction of Mx1 was not detectable: 156 ng/mL

## RFRPPIRRPPIRPPFYPPFRPPIRPPIFPPIRPPFRPPLGPFP [Bac5]
[1]
  MIC: 6.11 ± 2.2 µM
[2]
  MIC: 20.00 ± 0 µM
[3]
  MIC: >20 µM
[4]
  MIC: 2.78 ± 0.83 µM
[5]
  MIC: >20 µM
Escherichia coli 9217/10
  MIC: >20 µM
[6]
  MIC: >20 µM
